Measured values as given in patent US12412916B2, “Fuel cell with polymer electrolyte membrane” (HYUNDAI MOTOR COMPANY, priority 2022, dated 2025).

Tests used:
[1] = assay type: physicochemical
Method: The solubility of each compound sample was observed by dissolving the same amount in a total of six solvents, including water, dimethylacetamide (DMAc), methanol, ethanol, 1-propanol and 2-propanol, and the results are shown in Table 1 and FIG. 4. In the results, if the phase separation is not visible with the naked eye and the sample is dissolved well, it is indicated as ∘, and if the phase separation is visible or the sample is not dissolved, it is indicated as x.

[2] = assay type: physicochemical; remark: listed apart in the source
Method: The thermal stability was confirmed through thermogravimetric analysis (TGA), and specifically, each compound sample was put into a heating furnace of the thermogravimetric analyzer, and the temperature was elevated from room temperature to 120° C. at 20° C./min and maintained for 10 minutes, thereby removing the remaining water and performing stabilization. Thereafter, the weight change of the sample was measured while cooling to 60° C. at 20° C./min and heating from 60° C. to 800° C. at 10° C./min in a nitrogen atmosphere, and the results are shown in Table 1 below.

## CC(C)(C)c1cc(C(F)(F)C(F)(F)OC(F)(F)C(F)(F)S(=O)(=O)O)cc(C(C)(C)C)c1O [Example 1, sodium 2-(2-(3,5-di-tert-butyl-4-oxidophenyl)-1,1,2,2-tetrafluoroethoxy)-1,1,2,2-tetrafluoroethanesulfonate]
[1]
  Solubility 1-propanol: ○
  Solubility 2-propanol: ○
  Solubility DMAc: ○
  Solubility Ethanol: ○
  Solubility Methanol: ○
  Solubility in water (in words): not dissolved in water
[2]
  Thermal stability 5% decomposition temperature: 255 °C
